# Assay results: ChEMBL document CHEMBL4834430, “Design and Structure-Activity Relationships of Isothiocyanates as Potent and Selective N-Acylethanolamine-Hydrolyzing Acid Amidase Inhibitors” (J Med Chem, 2021)
# Activity calls are given as the source filed them. The calls are words filed in the database; no cut-off is given here.
# Assays:
# [1] = target: T1, N-acylethanolamine-hydrolyzing acid amidase (Homo sapiens) (UniProt Q02083); experiment: Inhibition of human NAAA at 1 uM using N-(4-methyl coumarin)-palmitamide as fluorogenic substrate preincubated for 90 mins followed by substrate addition by fluorescence assay relative to control
# T1 sequence (whole entry): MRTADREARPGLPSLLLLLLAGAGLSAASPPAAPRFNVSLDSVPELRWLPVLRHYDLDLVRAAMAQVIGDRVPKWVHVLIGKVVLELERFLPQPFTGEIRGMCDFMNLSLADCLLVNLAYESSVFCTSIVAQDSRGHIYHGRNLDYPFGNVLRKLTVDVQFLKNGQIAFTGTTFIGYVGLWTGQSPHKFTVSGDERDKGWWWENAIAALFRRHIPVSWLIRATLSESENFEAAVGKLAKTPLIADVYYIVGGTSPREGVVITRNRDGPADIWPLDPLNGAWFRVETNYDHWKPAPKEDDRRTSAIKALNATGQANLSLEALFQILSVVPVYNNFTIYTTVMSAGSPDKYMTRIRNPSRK
# [2] = target: T2, N-acylethanolamine-hydrolyzing acid amidase (Homo sapiens, UniProt Q02083); experiment: Inhibition of human NAAA using N-(4-methyl coumarin)-palmitamide as fluorogenic substrate preincubated for 90 mins followed by substrate addition by fluorescence assay
# T2 sequence (Q02083 whole entry): T1 sequence (whole entry)
# [3] = Drug concentration in plasma of CD-1 mouse at 2 mg/kg, iv administered as single cassette dose measured after 15 mins; format: ADME, organism-based
# [4] = Drug concentration in brain of CD-1 mouse at 2 mg/kg, iv administered as single cassette dose measured after 15 mins; format: ADME, organism-based; settings: read-out: Ct
# [5] = Drug concentration in plasma of CD-1 mouse at 8 mg/kg, po administered as single cassette dose measured after 60 mins; format: ADME, organism-based
# [6] = target: T3, Cathepsin K (Homo sapiens) (UniProt P43235); experiment: Inhibition of recombinant human Cathepsin K at 1 uM using Z-Phe-Arg-AMC as fluorogenic substrate preincubated for 120 mins followed by substrate addition by fluorescence assay
# T3 sequence (whole entry): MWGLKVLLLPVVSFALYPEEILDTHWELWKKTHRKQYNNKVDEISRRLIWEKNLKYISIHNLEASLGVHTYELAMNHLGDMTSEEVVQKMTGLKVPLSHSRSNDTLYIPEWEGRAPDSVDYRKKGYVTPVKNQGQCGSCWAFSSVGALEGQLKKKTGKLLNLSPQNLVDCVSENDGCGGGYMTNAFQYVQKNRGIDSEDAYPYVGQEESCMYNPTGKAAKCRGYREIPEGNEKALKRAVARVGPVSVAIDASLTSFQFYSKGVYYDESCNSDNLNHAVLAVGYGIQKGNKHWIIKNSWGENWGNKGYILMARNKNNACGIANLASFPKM
# [7] = Drug concentration in plasma of CD-1 mouse at 8 mg/kg, po administered as single cassette dose measured after 30 mins; format: ADME, organism-based
# [8] = target: T4, Cathepsin K (Homo sapiens, UniProt P43235); experiment: Inhibition of recombinant human Cathepsin K using Z-Phe-Arg-AMC as fluorogenic substrate preincubated for 120 mins followed by substrate addition by fluorescence assay
# T4 sequence (P43235 whole entry): T3 sequence (whole entry)
# [9] = Half life in human liver microsomes at 1 uM in presence of NADPH by LC-MS/MS analysis; format: ADME, Microsome
# [10] = Half life in mouse liver microsomes at 1 uM in presence of NADPH by LC-MS/MS analysis; format: ADME, Microsome
# [11] = Half life in rat liver microsomes at 1 uM in presence of NADPH by LC-MS/MS analysis; format: ADME, Microsome
# [12] = target: T1, N-acylethanolamine-hydrolyzing acid amidase (Homo sapiens); experiment: Covalent inhibition of human NAAA assessed as ratio of Kinact/Ki
# [13] = target: T3, Cathepsin K (Homo sapiens); experiment: Inhibition of recombinant human Cathepsin K at 100 nM using Z-Phe-Arg-AMC as fluorogenic substrate preincubated for 120 mins followed by substrate addition by fluorescence assay relative to control
compound,measurement,setting,value
CS(=O)(=O)c1ccc(-c2ccc(C(=O)N[C@H]3C[C@@H](N=C=S)C3)nc2)cc1,inhibition,[1],41%
COc1ccc(-c2ccc3c(c2)CN([C@H]2C[C@@H](N=C=S)C2)C3)cc1F,IC50,[2],74.2 nM
COc1ccc(-c2ncc(C(=O)N[C@H]3C[C@@H](N=C=S)C3)o2)cc1,inhibition,[1],51%
COc1ccc(-c2ccc(CO[C@H]3CCC[C@@H](N=C=S)C3)cc2)cc1F,inhibition,[1],35%
COc1ccc(-c2ccc(C(=O)N[C@H]3C[C@@H](N=C=S)C3)nc2)cc1,concentration at 0.25 h,[3],264 ng/mL
same,IC50,[2],7.6 nM
same,concentration at 0.25 h,[4],809 ng/g
same,concentration at 1 h,[5],8 ng/mL
same,inhibition,[6],inactive
same,concentration at 0.5 h,[7],12 ng/mL
COc1ccc(-c2cnc(C(=O)N[C@H]3C[C@@H](N=C=S)C3)cn2)cc1,IC50,[2],853 nM
COc1ccc(-c2noc(CO[C@H]3C[C@@H](N=C=S)C3)n2)cc1,IC50,[2],493 nM
COc1ccc(-c2ccc(C(C)O[C@H]3C[C@@H](N=C=S)C3)c(F)c2)cc1F (stereo not given in full),IC50,[2],14.6 nM
COc1ccc(-c2ccc(CO[C@]3(C)C[C@H](N=C=S)C3)c(F)c2)cc1F,IC50,[2],480 nM
COc1ccc(-c2ccc(O[C@H]3C[C@@H](N=C=S)C3)cc2)cc1F,IC50,[2],35.9 nM
COc1ccc(-c2ccc(C(=O)N[C@]34C[C@](N=C=S)(C3)C4)c(F)c2)cc1,IC50,[2],1230 nM
S=C=N[C@H]1C[C@H](OCc2ccc(-c3ccccc3)cc2)C1,IC50,[2],4300 nM
COc1ccc(-c2ccc3c(c2)CN([C@H]2C[C@@H](N=C=S)C2)CC3)cc1F,IC50,[2],356 nM
Fc1cc(-c2ccc3c(c2)CCO3)ccc1CO[C@H]1C[C@@H](N=C=S)C1,IC50,[2],4.5 nM
same,IC50,[8],83.5 nM
COc1ccc(-c2ccc(S(=O)(=O)N[C@H]3C[C@@H](N=C=S)C3)cc2)cc1F,IC50,[2],3.2 nM
same,half-life at 1 µM,[9],8 min
same,half-life at 1 µM,[10],6 min
same,half-life at 1 µM,[11],6 min
same,inhibition,[6],inactive
COc1cccc(-c2ccc(CO[C@H]3C[C@@H](N=C=S)C3)cc2)c1,IC50,[2],22 nM
same,Ratio,[12],2.24 10^6/M/s
COc1cnc(-c2ccc(CO[C@H]3C[C@@H](N=C=S)C3)cn2)cc1F,IC50,[2],15 nM
same,half-life at 1 µM,[9],11.8 min
same,half-life at 1 µM,[10],5.1 min
same,half-life at 1 µM,[11],10.2 min
same,inhibition,[13],56.8%
COc1ccc(C2CC(C(=O)N[C@H]3C[C@@H](N=C=S)C3)C2)cc1 (stereo not given in full),IC50,[2],55.9 nM
COc1ccc(-c2ccc(S(=O)(=O)N[C@H]3C[C@@H](N=C=S)C3)nc2)cc1,concentration at 0.25 h,[3],126 ng/mL
same,IC50,[2],6.3 nM
same,concentration at 0.25 h,[4],1150 ng/g
same,concentration at 1 h,[5],2 ng/mL
same,inhibition,[6],inactive
same,concentration at 0.5 h,[7],3 ng/mL
COc1cnc(-c2ccc(CO[C@H]3C[C@@H](N=C=S)C3)[n+]([O-])c2)cc1F,IC50,[2],23.5 nM
COc1cnc(-c2cnc(CO[C@H]3C[C@@H](N=C=S)C3)c(F)c2)cc1F,IC50,[2],19.5 nM
same,half-life at 1 µM,[9],7.1 min
same,half-life at 1 µM,[10],6.3 min
same,half-life at 1 µM,[11],7.4 min
same,inhibition,[13],43.7%
CCOc1ccc(-c2ccc(CO[C@H]3C[C@@H](N=C=S)C3)c(F)c2)cc1F,IC50,[2],69.2 nM
COc1ccc(-c2ccc(CN3CC(N=C=S)C3)c(F)c2)cc1F,IC50,[2],176 nM
COc1ccc(-c2ccc(CO[C@H]3C[C@@H](N=C=S)C3)c(F)c2)cc1OC,IC50,[2],58.9 nM
same,Ratio,[12],7.97 10^5/M/s
Cc1ccc(-c2ccc(CO[C@H]3C[C@H](N=C=S)C3)cc2)cc1,IC50,[2],580 nM
Fc1cc(-c2ccc3c(c2)OCC3)ccc1CO[C@H]1C[C@@H](N=C=S)C1,IC50,[2],59.3 nM
Fc1cc(-c2cccc(C(F)(F)F)c2)ccc1CO[C@H]1C[C@@H](N=C=S)C1,concentration at 0.25 h,[3],1010 ng/mL
same,IC50,[2],67.2 nM
same,concentration at 0.25 h,[4],810 ng/g
same,half-life at 1 µM,[9],16 min
same,half-life at 1 µM,[10],13.2 min
same,half-life at 1 µM,[11],17.9 min
same,concentration at 1 h,[5],331 ng/mL
same,concentration at 0.5 h,[7],19 ng/mL
S=C=NC1CN(CCCCCCc2ccccc2)C1,IC50,[2],8.3 nM
